From article PMC6271122, “Effects of Fructus Psoraleae Extract on the Intestinal Absorption Kinetics of Geniposide and Geniposidic Acid in Rat” (Molecules, 2014)
Where two headings read alike, the source gives them in different places.

What was measured:
[1] = system: β-D-glucosidase of a human intestinal anaerobe, Eubacterium sp.A-44; details: cited from earlier work
[2] = Stability in blank intestinal perfusion solution; type: physicochemical; details: 3 h, 50 mg/L; for Stability in blank intestinal perfusion solution: 37 °C; for Stability, RSD (%): Blank intestinal perfusion solution, 37 °C water bath, concentrations at 0, 0.25, 0.5, 1, 2 and 3 h compared
Description: A total of 50 mg/L GP and GPA perfusion solution (dissolved in blank intestinal perfusion solution) was incubated in a water bath at 37 °C for 3 h. The concentrations at 0, 0.25, 0.5, 1, 2 and 3 h were determined and compared.
The blank intestinal perfusion solution was prepared by a process consistent with the in situ intestinal perfusion experiment (as follows) except for the vacancy of GP or other components in the K-R solution.

[3] = Stability in K-R solution; type: physicochemical; details: 24 h, room temperature; for Stability, RSD (%): K-R solution, concentrations at 0-24 h compared
Description: GP and GPA were stable in K-R solution at room temperature for 24 h. The concentrations at 0, 1, 2, 3, 5, 6, 8, 10 and 24 h were determined and compared.
All the components were dissolved in the K-R solution to imitate the physiological conditions of the intestinal tract. K-R nutrient solution included: NaCl 7.8 g, KCl 0.35 g, CaCl2 0.37 g, NaHCO3 1.37 g, NaH2PO4 0.02 g, MgCl2 0.02 g, glucose 2.22 g. They were dissolved in distilled water to 1000 mL.

[4] = cited from earlier work
[5] = system: NO production; set-up: method as in PMID 22181069; details: protection from renal injury; cited from earlier work
[6] = Effect of physical adsorption of the peristaltic pump; type: physicochemical; details: for Physical Adsorption RSD (%): original vs 3 h concentration, 37 °C; for Concentration (mg/L) 3 h: perfusion solution after 3 h in water bath at 37 °C, compared with original concentration
Description: The perfusion solutions with known drug concentrations were incubated for 3 h in a water bath at 37 °C. The concentrations of GP and GPA in the resulting solution were determined and compared with the original concentrations.

[7] = In situ intestinal perfusion of rat duodenum (UPLC of perfusate); type: in vivo; details: for Cumulative Absorption Rate (%) 1 h (mean ± SD) / Cumulative Absorption Rate (%) 3 h (mean ± SD): rat duodenum, n = 6
Description: All animal experimental procedures were in compliance with the National Institutes of Health Guide for Care and Use of Laboratory Animals. The in situ intestinal perfusion experiment was performed by using male Sprague-Dawley rats (240 ± 20 g) which obtained from Beijing Vital River Laboratory Animal Technology Co., Ltd. (SCXK 2012-0001, Beijing, China). Animals were fasted overnight (12 h) with free access to water before being allocated to different experimental groups at random. After the abdominal cavity was opened, an intestinal loop (length, 10 cm) was made by cannulation with silicone tube (i.d., 3 mm) at the duodenum which was selected 1 cm away from pylorus. The intestinal contents were removed by infusion of normal saline solution. The 25 mL perfusion solution was precisely measured and stored in the measuring cylinder. At the start of the experiment, the perfusion solutions perfused through the intestinal segment at a flow rate of 5 mL/min for 10 min by using a peristaltic pump (Petro Gas Ausrüstungen, Berlin, Germany). On reaching a steady state, changed the flow rate to 2.5 mL/min, and the intestinal perfusion samples (150 µL × 3) were collected at 30 min intervals for the duration of 3 h (0, 0.5, 1, 1.5, 2, 2.5, 3 h) with a pipette and put into shell tube. After each collection, the volumes (V1) of the perfusion solutions were recorded precisely and 450 µL blank K-R solution was added into the perfusion solution to keep the volume of the perfusion solution constant. After 3 h, the intestinal perfusion solution in peristaltic pump and the duodenum was exhausted, the volume of which was recorded as V2. All the samples were assayed by UPLC after preparation. Finally, the curves of time and the residual quantities (lnx) of GP and GPA in intestinal solution during the absorption in the duodenum for 3 h were obtained (Figure 2).The residual quantities of GP and GPA in the perfusion solution were calculated using the following equation: Xn = CnVn + 0.45 [drawing 1] , Xn is the residual quantities of GP or GPA in intestinal solution, Ci and Cn is the concentration of the GP or GPA, Vn is the volume of the intestinal perfusion solution (Vn = V1 + V2). Cumulative absorption rates were compared for 1 h and 3 h between the single and compatibility groups. The equation was as follows: 1 h/3 h cumulative absorption rate [drawing 2] .
Samples were prepared using a protein precipitation method at a volume ratio of 1:1 (v/v). The perfusion sample (150 µL) was mixed with CH3OH (150 µL), and then vortexed for 1 min. After 10 min for the precipitation, pure water (160 µL) was added to 40 µL of the above mixture. Then the sample was vortexed for 1 min and centr ifuged at 14,000 rpm for 10 min. The supernatant was directly used for UPLC analysis.
After sample preparation, 3 µL of the supernatant was injected into the UPLC system, and separated on a Waters BEH C18 column (2.1 × 50 mm, 1.7 µm). The column temperature was set at 25 °C. The mobile phase was consisted of water with 0.2% acetic acid (A) and acetonitrile (B) at a flow rate of 0.35 mL/min. The mobile phase operated in the following gradient for GP: 0–3 min: 15%–50% B, 3–3.5 min: 50%–90% B, 3.5–4 min: 90%–50% B, 4–5 min: 50%–15% B; GPA: 0–1 min: 5%–10% B, 1–2 min: 10%–20% B, 2–3 min: 20%–50% B, 3–4 min: 50%–10% B, 4–5 min: 10%–5% B. The detection wavelength was 254 nm.

[8] = system: β-D-glucosidase in rat liver homogenate; set-up: method as in PMID 7735197; details: cited from earlier work
[9] = Compatibility group (mixed with FPE)
[10] = Single group, 80 mg/L perfusion solution

| SMILES | Hydrolysis by β-D-glucosidase ([1]; human intestinal anaerobe Eubacterium sp.A-44) | Stability in blank intestinal perfusion solution [2] | Stability, RSD (%) [2] [%] | Stability, RSD (%) [3] [%] | Stability in K-R solution [3] | Absorption in the duodenum by concentration ([4]; GP at 78 mg/L compared with other concentrations) | Absorption in the duodenum versus other parts of the intestinal tract [4] | Effect on NO production [5] | Physical Adsorption RSD (%) [6] [%] | Concentration (mg/L) 3 h [6] [mg/L] | Cumulative Absorption Rate (%) 1 h (mean ± SD) [7, 9] [%] | Cumulative Absorption Rate (%) 3 h (mean ± SD) [7, 9] [%] | Cumulative Absorption Rate (%) 1 h (mean ± SD) [7, 10] [%] | Cumulative Absorption Rate (%) 3 h (mean ± SD) [7, 10] [%] | Hydrolysis by β-D-glucosidase [8] | Hydrolysis by β-D-glucosidase [1] | Intestinal absorption at 216 mg/L ([7]; GPA 216 mg/L in intestinal perfusion solution) |
| --- | --- | --- | --- | --- | --- | --- | --- | --- | --- | --- | --- | --- | --- | --- | --- | --- | --- |
| COC(=O)C1=CO[C@@H](O[C@@H]2O[C@H](CO)[C@@H](O)[C@H](O)[C@H]2O)[C@@H]2C(CO)=CC[C@H]12 [GP, Geniposide] | can be hydrolyzed | stable | 3.27 | 1.32 | stable | best absorption | better than other parts of the intestinal tract | inhibited NO production | 0.57 | 92.34 | 0.139 ± 0.104 | 0.120 ± 0.063 | 0.059 ± 0.018 | 0.081 ± 0.017 | cannot be hydrolyzed | – | – |
| O=C(O)C1=CO[C@@H](O[C@@H]2O[C@H](CO)[C@@H](O)[C@H](O)[C@H]2O)[C@@H]2C(CO)=CC[C@H]12 [GPA, geniposidic acid] | – | stable | 0.45 | 2.01 | stable | – | – | – | 1.32 | 114.68 | 0.075 ± 0.015 | 0.105 ± 0.028 | 0.063 ± 0.040 | 0.136 ± 0.046 | – | can hydolyse | poor absorption |
